Results as given in patent US10577353B2, “5-(n-[6,5]-fused bicyclic aryl tetrahydroisoquinolin-6-yl) pyridin-3-yl acetic acid derivatives as inhibitors of human immunodeficiency virus replication” (priority 2015, dated 2020).

What follows are compounds tested on recombinant NL-RLuc virus (NL4-3 derived HIV) (assay: Inhibition of HIV replication (NL-RLuc virus in MT-2 cells, luciferase readout)). Details: Human immunodeficiency virus 1, NL43, MT2, 120 h.
Type: cell-based
Source text: Inhibition of HIV Replication:
A recombinant NL-RLuc proviral clone was constructed in which a section of the nef gene from NL4-3 was replaced with the Renilla Luciferase gene. This virus is fully infectious and can undergo multiple cycles of replication in cell culture. In addition, the luciferous reporter provides a simple and easy method for quantitating the extent of virus growth and consequently, the antiviral activity of test compounds. The plasmid pNLRLuc contains the proviral NL-Rluc DNA cloned into pUC 18 at the PvuII site. The NL-RLuc virus was prepared by transfection of 293T cells with the plasmid pNLRLuc. Transfections were performed using the LipofectAMINE PLUS kit from Invitrogen (Carlsbad, Calif.) according to the manufacturer and the virus generated was titered in MT-2 cells. For susceptibility analyses, the titrated virus was used to infect MT-2 cells in the presence of compound, and after 5 days of incubation, cells were processed and quantitated for virus growth by the amount of expressed luciferase. Assay media was RPMI 1640 supplemented with 10% heat inactivated fetal bovine serum (FBS), 100 units/ml penicillin G/100 units/ml streptomycin, 10 mM HEPES buffer pH 7.55 and 2 mM L-glutamine. The results from at least 2 experiments were used to calculate the EC50 values. Luciferase was quantitated using the Dual Luciferase kit from Promega (Madison, Wis.). Susceptibility of viruses to compounds was determined by incubation in the presence of serial dilutions of the compound. The 50% effective concentration (EC50) was calculated by using the exponential form of the median effect equation where (Fa)=1/[1+(ED50/drug conc.)^m] (Johnson V A, Byington R T. Infectivity Assay. In Techniques in HIV Research. ed. Aldovini A, Walker B D. 71-76. New York: Stockton Press. 1990).

Row | Compound | EC50
1 | Cc1nc(C)c([C@H](OC(C)(C)C)C(=O)O)c(N2CCC(C)(C)CC2)c1-c1ccc2c(c1)CCN(c1nc3ncc(C(F)(F)F)cc3s1)C2 [Compound 1, (S)-2-(tert-butoxy)-2-(4-(4,4-dimethylpiperidin-1-yl)-2,6-dimethyl-5-(2-(6-(trifluoromethyl)thiazolo[4,5-b]pyridin-2-yl)-1,2,3,4-tetrahydroisoquinolin-6-yl)pyridin-3-yl)acetic acid] | 3 nM
2 | Cc1nc(C)c([C@H](OC(C)(C)C)C(=O)O)c(N2CCC(C)(C)CC2)c1-c1ccc2c(c1)CCN(c1nc3cccnc3s1)C2 [Compound 2, (S)-2-(tert-butoxy)-2-(4-(4,4-dimethylpiperidin-1-yl)-2,6-dimethyl-5-(2-(thiazolo[5,4-b]pyridin-2-yl)-1,2,3,4-tetrahydroisoquinolin-6-yl)pyridin-3-yl)acetic acid] | 1 nM
3 | Cc1nc(C)c([C@H](OC(C)(C)C)C(=O)O)c(N2CCC(C)(C)CC2)c1-c1ccc2c(c1)CCN(c1nc3c(Cl)cncc3s1)C2 [Compound 3, (S)-2-(tert-butoxy)-2-(5-(2-(7-chlorothiazolo[5,4-c]pyridin-2-yl)-1,2,3,4-tetrahydroisoquinolin-6-yl)-4-(4,4-dimethylpiperidin-1-yl)-2,6-dimethylpyridin-3-yl)acetic acid] | 1 nM
4 | Cc1nc(C)c([C@H](OC(C)(C)C)C(=O)O)c(N2CCC(C)(C)CC2)c1-c1ccc2c(c1)CCN(c1nc3ccc(Cl)cc3s1)C2 [Compound 4, (S)-2-(tert-butoxy)-2-(5-(2-(6-chlorobenzo[d]thiazol-2-yl)-1,2,3,4-tetrahydroisoquinolin-6-yl)-4-(4,4-dimethylpiperidin-1-yl)-2,6-dimethylpyridin-3-yl)acetic acid] | 19 nM
5 | Cc1nc(C)c([C@H](OC(C)(C)C)C(=O)O)c(N2CCC(C)(C)CC2)c1-c1ccc2c(c1)CCN(c1nc3cc(Cl)c(Cl)cc3s1)C2 [Compound 5, (S)-2-(tert-butoxy)-2-(5-(2-(5,6-dichlorobenzo[d]thiazol-2-yl)-1,2,3,4-tetrahydroisoquinolin-6-yl)-4-(4,4-dimethylpiperidin-1-yl)-2,6-dimethylpyridin-3-yl)acetic acid] | 12 nM
6 | Cc1ccc2sc(N3CCc4cc(-c5c(C)nc(C)c([C@H](OC(C)(C)C)C(=O)O)c5N5CCC(C)(C)CC5)ccc4C3)nc2c1 [Compound 6, (S)-2-(tert-butoxy)-2-(4-(4,4-dimethylpiperidin-1-yl)-2,6-dimethyl-5-(2-(5-methylbenzo[d]thiazol-2-yl)-1,2,3,4-tetrahydroisoquinolin-6-yl)pyridin-3-yl)acetic acid] | 22 nM
7 | Cc1nc(C)c([C@H](OC(C)(C)C)C(=O)O)c(N2CCC(C)(C)CC2)c1-c1ccc2c(c1)CCN(c1nc3c(Cl)cccc3s1)C2 [Compound 7, (S)-2-(tert-butoxy)-2-(5-(2-(4-chlorobenzo[d]thiazol-2-yl)-1,2,3,4-tetrahydroisoquinolin-6-yl)-4-(4,4-dimethylpiperidin-1-yl)-2,6-dimethylpyridin-3-yl)acetic acid] | 2 nM
8 | Cc1nc(C)c([C@H](OC(C)(C)C)C(=O)O)c(N2CCC(C)(C)CC2)c1-c1ccc2c(c1)CCN(c1nc3ccc(F)cc3s1)C2 [Compound 8, (S)-2-(tert-butoxy)-2-(4-(4,4-dimethylpiperidin-1-yl)-5-(2-(6-fluorobenzo[d]thiazol-2-yl)-1,2,3,4-tetrahydroisoquinolin-6-yl)-2,6-dimethylpyridin-3-yl)acetic acid] | 5 nM
9 | Cc1ccc2nc(N3CCc4cc(-c5c(C)nc(C)c([C@H](OC(C)(C)C)C(=O)O)c5N5CCC(C)(C)CC5)ccc4C3)sc2c1 [Compound 9, (S)-2-(tert-butoxy)-2-(4-(4,4-dimethylpiperidin-1-yl)-2,6-dimethyl-5-(2-(6-methylbenzo[d]thiazol-2-yl)-1,2,3,4-tetrahydroisoquinolin-6-yl)pyridin-3-yl)acetic acid] | 8 nM
10 | Cc1nc(C)c([C@H](OC(C)(C)C)C(=O)O)c(N2CCC(C)(C)CC2)c1-c1ccc2c(c1)CCN(c1nc3ncccc3s1)C2 [Compound 10, (S)-2-(tert-butoxy)-2-(4-(4,4-dimethylpiperidin-1-yl)-2,6-dimethyl-5-(2-(thiazolo[4,5-b]pyridin-2-yl)-1,2,3,4-tetrahydroisoquinolin-6-yl)pyridin-3-yl)acetic acid] | 2 nM
11 | Cc1nc(C)c([C@H](OC(C)(C)C)C(=O)O)c(N2CCC(C)(C)CC2)c1-c1ccc2c(c1)CCN(c1nc3cnccc3s1)C2 [Compound 11, (S)-2-(tert-butoxy)-2-(4-(4,4-dimethylpiperidin-1-yl)-2,6-dimethyl-5-(2-(thiazolo[4,5-c]pyridin-2-yl)-1,2,3,4-tetrahydroisoquinolin-6-yl)pyridin-3-yl)acetic acid] | 1 nM
12 | COc1ccc2nc(N3CCc4cc(-c5c(C)nc(C)c([C@H](OC(C)(C)C)C(=O)O)c5N5CCC(C)(C)CC5)ccc4C3)sc2c1 [Compound 12, (S)-2-(tert-butoxy)-2-(4-(4,4-dimethylpiperidin-1-yl)-5-(2-(6-methoxybenzo[d]thiazol-2-yl)-1,2,3,4-tetrahydroisoquinolin-6-yl)-2,6-dimethylpyridin-3-yl)acetic acid] | 4 nM
13 | Cc1nc(C)c([C@H](OC(C)(C)C)C(=O)O)c(N2CCC(C)(C)CC2)c1-c1ccc2c(c1)CCN(c1nc3ccccc3s1)C2 [Compound 13, (S)-2-(5-(2-(benzo[d]thiazol-2-yl)-1,2,3,4-tetrahydroisoquinolin-6-yl)-4-(4,4-dimethylpiperidin-1-yl)-2,6-dimethylpyridin-3-yl)-2-(tert-butoxy)acetic acid] | 7 nM
14 | Cc1nc(C)c([C@H](OC(C)(C)C)C(=O)O)c(N2CCC(C)(C)CC2)c1-c1ccc2c(c1)CCN(c1ncnc3sccc13)C2 [Compound 14, (S)-2-(tert-butoxy)-2-(4-(4,4-dimethylpiperidin-1-yl)-2,6-dimethyl-5-(2-(thieno[2,3-d]pyrimidin-4-yl)-1,2,3,4-tetrahydroisoquinolin-6-yl)pyridin-3-yl)acetic acid] | 2 nM
15 | Cc1nc(C)c([C@H](OC(C)(C)C)C(=O)O)c(N2CCC(C)(C)CC2)c1-c1ccc2c(c1)CCN(c1ncnc3c(C)csc13)C2 [Compound 15, (S)-2-(tert-butoxy)-2-(4-(4,4-dimethylpiperidin-1-yl)-2,6-dimethyl-5-(2-(7-methylthieno[3,2-d]pyrimidin-4-yl)-1,2,3,4-tetrahydroisoquinolin-6-yl)pyridin-3-yl)acetic acid] | 2 nM
16 | Cc1nc(C)c([C@H](OC(C)(C)C)C(=O)O)c(N2CCC(C)(C)CC2)c1-c1ccc2c(c1)CCN(c1ncnc3c1cnn3C)C2 [Compound 16, (S)-2-(tert-butoxy)-2-(4-(4,4-dimethylpiperidin-1-yl)-2,6-dimethyl-5-(2-(1-methyl-1H-pyrazolo[3,4-d]pyrimidin-4-yl)-1,2,3,4-tetrahydroisoquinolin-6-yl)pyridin-3-yl)acetic acid] | 2 nM
17 | Cc1nc(C)c([C@H](OC(C)(C)C)C(=O)O)c(N2CCC(C)(C)CC2)c1-c1ccc2c(c1)CCN(c1nc3ccccc3n1C)C2 [Compound 17, (S)-2-(tert-butoxy)-2-(4-(4,4-dimethylpiperidin-1-yl)-2,6-dimethyl-5-(2-(1-methyl-1H-benzo[d]imidazol-2-yl)-1,2,3,4-tetrahydroisoquinolin-6-yl)pyridin-3-yl)acetic acid] | 22 nM
18 | Cc1nc(C)c([C@H](OC(C)(C)C)C(=O)O)c(N2CCC(C)(C)CC2)c1-c1ccc2c(c1)CCN(c1noc3ccccc13)C2 [Compound 18, (S)-2-(5-(2-(benzo[d]isoxazol-3-yl)-1,2,3,4-tetrahydroisoquinolin-6-yl)-4-(4,4-dimethylpiperidin-1-yl)-2,6-dimethylpyridin-3-yl)-2-(tert-butoxy)acetic acid] | 5 nM
19 | Cc1nc(N2CCc3cc(-c4c(C)nc(C)c([C@H](OC(C)(C)C)C(=O)O)c4N4CCC(C)(C)CC4)ccc3C2)c2cnn(C)c2n1 [Compound 19, (S)-2-(tert-butoxy)-2-(5-(2-(1,6-dimethyl-1H-pyrazolo[3,4-d]pyrimidin-4-yl)-1,2,3,4-tetrahydroisoquinolin-6-yl)-4-(4,4-dimethylpiperidin-1-yl)-2,6-dimethylpyridin-3-yl)acetic acid] | 1 nM
20 | Cc1nc(C)c([C@H](OC(C)(C)C)C(=O)O)c(N2CCC(C)(C)CC2)c1-c1ccc2c(c1)CCN(c1ncnc3[nH]ccc13)C2 [Compound 20, (S)-2-(5-(2-(7H-pyrrolo[2,3-d]pyrimidin-4-yl)-1,2,3,4-tetrahydroisoquinolin-6-yl)-4-(4,4-dimethylpiperidin-1-yl)-2,6-dimethylpyridin-3-yl)-2-(tert-butoxy)acetic acid] | 3 nM
21 | Cc1nc(C)c([C@H](OC(C)(C)C)C(=O)O)c(N2CCC(C)(C)CC2)c1-c1ccc2c(c1)CCN(c1nc(O)c3[nH]cnc3n1)C2 [Compound 21, (S)-2-(tert-butoxy)-2-(4-(4,4-dimethylpiperidin-1-yl)-5-(2-(6-hydroxy-7H-purin-2-yl)-1,2,3,4-tetrahydroisoquinolin-6-yl)-2,6-dimethylpyridin-3-yl)acetic acid] | 5990 nM
